Legend:
Assay in all cases: Bliss excess, mean over the matrix (fraction); higher = more synergy
[1] = tested on: SW1271 (Small Cell Lung Carcinoma)
Outline: (§1)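 Cell lines in DMEM/F12 or RPMI with 10% FBS were plated in 1536-well plates, held 24 hours at 37°C, 5% CO2, then given two-drug dose matrices for 72 hours (DMSO typically 0.2%). Viability was read by CellTiter-Glo 2.0 luminescence and scaled as inhibition from 0 (vehicle wells) to 1 (blank wells). Combination Emax is the second-highest inhibition in the matrix; Bliss excess is observed combination effect minus expected EA + EB − EA·EB, EA and EB being single-agent effects.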

[2] = tested on: NCI-H2795 (Mesothelioma)
Outline: as §1

[3] = tested on: Mewo (Melanoma)
Outline: as §1

[4] = tested on: OC-314 (Ovarian Carcinoma)
Outline: as §1

[5] = tested on: CAL-51 (Breast Carcinoma)
Outline: as §1

[6] = tested on: SW1116 (Colorectal Carcinoma)
Outline: as §1

[7] = tested on: CAL-54 (Kidney Carcinoma)
Outline: as §1

[8] = tested on: SU-DHL-6 (B-Cell Non-Hodgkin's Lymphoma)
Outline: as §1

[9] = tested on: 8305C (Thyroid Gland Carcinoma)
Outline: as §1

[10] = tested on: NCI-H28 (Mesothelioma)
Outline: as §1

[11] = tested on: KYSE-410 (Esophageal Squamous Cell Carcinoma)
Outline: as §1

[12] = tested on: SK-OV-3 (Ovarian Carcinoma)
Outline: as §1

[13] = tested on: LU-139 (Small Cell Lung Carcinoma)
Outline: as §1

[14] = tested on: K5 (Thyroid Gland Carcinoma)
Outline: as §1

[15] = tested on: HCC-15 (Squamous Cell Lung Carcinoma)
Outline: as §1

[16] = tested on: SW626 (Colorectal Carcinoma)
Outline: as §1

[17] = tested on: MHH-PREB-1 (B-Cell Non-Hodgkin's Lymphoma)
Outline: as §1

[18] = tested on: RKO (Colorectal Carcinoma)
Outline: as §1

[19] = tested on: HDLM-2 (Hodgkin's Lymphoma)
Outline: as §1

[20] = tested on: NCI-H2461 (Mesothelioma)
Outline: as §1

Row | SMILES | Bliss excess [1] | Bliss excess [2] | Bliss excess [3] | Bliss excess [4] | Bliss excess [5] | Bliss excess [6] | Bliss excess [7] | Bliss excess [8] | Bliss excess [9] | Bliss excess [10] | Bliss excess [11] | Bliss excess [12] | Bliss excess [13] | Bliss excess [14] | Bliss excess [15] | Bliss excess [16] | Bliss excess [17] | Bliss excess [18] | Bliss excess [19] | Bliss excess [20]
1 | Cc1c2c(nn1C)CSCc1cc(n(C)n1)CSc1cc(c3ccccc3c1)OCCCc1c(C(=O)O)n(C)c3c-2c(Cl)ccc13 [AZD5991] + CC1(C)CCC(CN2CCN(c3ccc(C(=O)NS(=O)(=O)c4ccc(NCC5CCOCC5)c([N+](=O)[O-])c4)c(Oc4cnc5[nH]ccc5c4)c3)CC2)=C(c2ccc(Cl)cc2)C1 [Venetoclax] (first compound max 1 µM, 7x7, partner max 1 µM) | -0.0504 | -0.0423 | 0.0377 | -0.0045 | 0.0481 | -0.0215 | -0.0151 | 0.0744 | -0.0189 | -0.0812 | -0.0393 | -0.0153 | 0.0307 | -0.0325 | -0.0271 | -0.0064 | -0.0301 | 0.0107 | 0.162 | -0.0237
2 | CN(CCO)CC[C@H](CSc1ccccc1)Nc1ccc(S(=O)(=O)NC(=O)c2ccc(N3CCC([C@@H](O)c4ccccc4-c4ccc(Cl)cc4)CC3)cc2)cc1S(=O)(=O)C(F)(F)F [AZD4320] + Cc1cc2ncnn2cc1Nc1ncc2c(n1)n(C1CCOCC1)c(=O)n2C [AZD7648] (first compound max 1 µM, 7x7, partner max 10 µM) | -0.0386 | -0.0395 | -0.0104 | -0.0394 | -0.0064 | -0.0359 | -0.0122 | -0.0099 | 0.0242 | -0.055 | -0.0406 | -0.063 | 0.0151 | -0.0105 | -0.0214 | -0.0526 | -0.0041 | -0.0148 | -0.0018 | -0.0484
3 | NC1(C(=O)N[C@@H](CCO)c2ccc(Cl)cc2)CCN(c2ncnc3[nH]ccc23)CC1 [Capivasertib] + CC(C)n1c(=O)n(C)c2cnc3cc(F)c(-c4ccc(OCCCN5CCCCC5)nc4)cc3c21 [AZD1390] (first compound max 10 µM, 7x7, partner max 0.3 µM) | -0.0347 | -0.0483 | -0.0597 | -0.0412 | -0.0972 | -0.0335 | -0.0687 | -0.0071 | -0.0773 | -0.0776 | -0.0795 | -0.0754 | -0.0204 | -0.0539 | -0.0608 | -0.0828 | -0.0353 | -0.0429 | -0.0002 | -0.0579
4 | Cn1cnc2c(F)c(Nc3ccc(Br)cc3Cl)c(C(=O)NOCCO)cc21 [Selumetinib] + C[C@@H]1COCCN1C2=NC(=NC(=C2)C3(CC3)[S@](=N)(=O)C)C4=C5C=CNC5=NC=C4 [AZD6738] (first compound max 10 µM, 7x7, partner max 10 µM) | 0.0072 | -0.0239 | -0.0236 | -0.0764 | 0.0209 | -0.0148 | -0.0083 | 0.0102 | -0.0238 | -0.0096 | 0.0274 | -0.0424 | -0.0259 | 0.045 | 0.0787 | 0.0756 | -0.0416 | -0.0041 | -0.0422 | -0.026
5 | COc1cccc(OCCCN)c1-c1cc(Nc2cnc(C#N)cn2)n[nH]1 [Prexasertib] + CCc1c2c(nc3ccc(O)cc13)-c1cc3c(c(=O)n1C2)COC(=O)[C@]3(O)CC [SN-38] (first compound max 1 µM, 7x7, partner max 0.3 µM) | -0.088 | -0.106 | 0.0881 | 0.0061 | -0.0495 | 0.076 | -0.115 | 0.157 | -0.014 | -0.074 | -0.0192 | -0.0344 | -0.0118 | -0.0708 | 0.0659 | -0.0156 | 0.0153 | -0.0686 | -0.0701 | -0.114
6 | NC1(C(=O)N[C@@H](CCO)c2ccc(Cl)cc2)CCN(c2ncnc3[nH]ccc23)CC1 [Capivasertib] + C[C@@H]1COCCN1C2=NC(=NC(=C2)C3(CC3)[S@](=N)(=O)C)C4=C5C=CNC5=NC=C4 [AZD6738] (first compound max 10 µM, 7x7, partner max 10 µM) | -0.0657 | -0.0197 | -0.0968 | -0.024 | -0.0096 | -0.011 | -0.0374 | 0.0023 | -0.0308 | -0.0702 | -0.0369 | -0.0456 | -0.0083 | -0.0693 | -0.0459 | -0.0622 | -0.0486 | -0.0207 | -0.0451 | -0.0866
7 | Cc1c2c(nn1C)CSCc1cc(n(C)n1)CSc1cc(c3ccccc3c1)OCCCc1c(C(=O)O)n(C)c3c-2c(Cl)ccc13 [AZD5991] + C[C@@H](Nc1cc(F)cc(F)c1)c1cc(C(=O)N(C)C)cc2c(=O)cc(N3CCOCC3)oc12 [AZD8186] (first compound max 1 µM, 7x7, partner max 3 µM) | -0.0576 | 0.0848 | -0.0411 | -0.0029 | 0.0173 | 0.0046 | -0.004 | -0.002 | -0.0844 | -0.0245 | -0.0639 | -0.0501 | -0.0439 | -0.0231 | -0.0047 | -0.0268 | -0.0069 | -0.0116 | -0.0351 | -0.0062
8 | Cc1c2c(nn1C)CSCc1cc(n(C)n1)CSc1cc(c3ccccc3c1)OCCCc1c(C(=O)O)n(C)c3c-2c(Cl)ccc13 [AZD5991] + Cc1cc2ncnn2cc1Nc1ncc2c(n1)n(C1CCOCC1)c(=O)n2C [AZD7648] (first compound max 1 µM, 7x7, partner max 10 µM) | -0.0308 | -0.0168 | -0.0211 | 0.0063 | -0.0529 | -0.0466 | -0.0697 | 0.0224 | -0.0739 | -0.0051 | -0.0184 | -0.032 | -0.013 | -0.0537 | -0.0436 | -0.0069 | -0.0029 | -0.0301 | 0.0007 | -0.0516
9 | COc1nnc2ccc(N3CCC(c4ccc(OCCN5CCN(C)C(=O)[C@H]5C)cc4)CC3)nn12 [AZD5153] + CCN(CCO)CCCOc1ccc2c(Nc3cc(CC(=O)Nc4cccc(F)c4)[nH]n3)ncnc2c1 [AZD2811] (first compound max 1 µM, 7x7, partner max 1 µM) | -0.0234 | -0.0807 | -0.0578 | -0.04 | -0.0038 | -0.0632 | -0.0225 | -0.0215 | -0.0629 | -0.0415 | -0.0182 | -0.0703 | 0.0203 | -0.0485 | -0.0646 | -0.0348 | 0.0074 | -0.0096 | 0.0003 | -0.0421
10 | C=CCn1c(=O)c2cnc(Nc3ccc(N4CCN(C)CC4)cc3)nc2n1-c1cccc(C(C)(C)O)n1 [AZD1775] + C[C@@H]1COCCN1C2=NC(=NC(=C2)C3(CC3)[S@](=N)(=O)C)C4=C5C=CNC5=NC=C4 [AZD6738] (first compound max 1 µM, partner max 10 µM) | -0.0474 | -0.0134 | 0.026 | 0.0937 | 0.0981 | -0.0075 | -0.0377 | 0.0458 | -0.122 | 0.0066 | -0.0061 | -0.0067 | -0.0149 | -0.0453 | 0.0035 | 0.0354 | 0.0075 | 0.0529 | -0.0511 | -0.081
11 | Cc1c2c(nn1C)CSCc1cc(n(C)n1)CSc1cc(c3ccccc3c1)OCCCc1c(C(=O)O)n(C)c3c-2c(Cl)ccc13 [AZD5991] + CCN(CCO)CCCOc1ccc2c(Nc3cc(CC(=O)Nc4cccc(F)c4)[nH]n3)ncnc2c1 [AZD2811] (first compound max 1 µM, 7x7, partner max 1 µM) | -0.0403 | 0.041 | -0.0173 | 0.0457 | 0.112 | -0.003 | -0.0018 | 0.0379 | -0.0204 | 0.0191 | 0.045 | 0.0018 | 0.0672 | -0.0431 | -0.0144 | 0.0141 | 0.0147 | 0.0201 | -0.0117 | 0.0185
12 | COc1cccc(OCCCN)c1-c1cc(Nc2cnc(C#N)cn2)n[nH]1 [Prexasertib] + O=C(c1cc(Cc2n[nH]c(=O)c3ccccc23)ccc1F)N1CCN(C(=O)C2CC2)CC1 [Olaparib] (first compound max 1 µM, 7x7, partner max 10 µM) | -0.0602 | -0.024 | -0.0708 | -0.0616 | -0.0744 | -0.0415 | -0.0942 | 0.0089 | -0.0732 | -0.0613 | -0.0463 | -0.12 | -0.0401 | -0.051 | 0.0101 | -0.074 | -0.125 | -0.0165 | -0.046 | -0.0891

Reference: the supplement of paper PMC11061612
